pIC50: −log10 of the molar value.
Legend:
A375 cells = assay: A375 cell proliferation assay (1), resazurin, 96-well; assay type: cell-based; conditions: Homo sapiens, A-375, inhibition of cell proliferation
Method in brief: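 Viability was read by resazurin fluorescence at 540 nm excitation and 600 nm emission, using a 440 μM solution added for 5–6 h at the end of culture. IC50 came from the curve fit.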

H2405 cells = assay: H2405 cell proliferation assay (1), resazurin, 96-well; assay type: cell-based; conditions: Homo sapiens, NCI-H2405, inhibition of cell proliferation
Method in brief: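 This is a resazurin viability readout (excitation 540 nm, emission 600 nm) taken 5-6 h after adding 440 μM resazurin solution, giving IC50 values.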

WM3928 cells = assay: WM3928 cell proliferation assay (1), resazurin, 96-well; assay type: cell-based; conditions: inhibition of cell proliferation
Method in brief: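 IC50 was derived from resazurin fluorescence (ex 540, em 600 nm) after a 6–7 h dye incubation. Before that, cells had 67–72 h of compound exposure at 37 °C, 5% CO2.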

C-Raf kinase = biological target: T1, C-Raf kinase (Homo sapiens, UniProt P04049, Y340D/Y341D); assay: Biochemical assay for C-Raf.1 (coupled pyruvate kinase/lactate dehydrogenase); conditions: read-out: CRAF.1 IC50
T1 construct: Y340D,; GST (N); purchased Sigma
T1 sequence (P04049 307-648 Y340D/Y341D): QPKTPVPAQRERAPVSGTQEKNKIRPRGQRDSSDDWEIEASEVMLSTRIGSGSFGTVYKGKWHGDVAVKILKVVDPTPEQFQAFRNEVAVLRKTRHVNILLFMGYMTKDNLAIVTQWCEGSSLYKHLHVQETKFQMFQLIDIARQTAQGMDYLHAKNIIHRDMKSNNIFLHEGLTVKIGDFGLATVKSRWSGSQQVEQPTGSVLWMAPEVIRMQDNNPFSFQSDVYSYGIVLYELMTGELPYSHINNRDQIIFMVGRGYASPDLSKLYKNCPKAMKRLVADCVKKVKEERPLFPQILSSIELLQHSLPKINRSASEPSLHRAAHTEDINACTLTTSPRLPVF
Method in brief: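 NADH depletion at 340 nm monitored continuously for 6 h at 30° C, with rates taken over 4–5 h. The coupled pyruvate kinase/lactate dehydrogenase reaction used 1 mM ATP, 30.1 nM MEK substrate and 0.43 nM kinase at pH 7.5. IC50 was fitted sigmoidally from percent inhibition of serially diluted compound.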

Row | pIC50 (A375 cells) | pIC50 (H2405 cells) | pIC50 (C-Raf kinase) | SMILES | pIC50 (WM3928 cells)
1 | 6.30 to 7.00 | 6.30 to 7.00 | ≥ 7.00 | Cc1ccc(NC(=O)N2CC[C@@H](C(F)(F)F)C2)cc1-c1cncc(-c2cc(NC(=O)C3CC3)ncn2)c1 [Example 210] | 6.30 to 7.00
2 | ≥ 7.00 | ≥ 7.00 | ≥ 7.00 | Cc1ccc(NC(=O)N2CC[C@H](C(C)C)C2)cc1-c1cncc(-c2cc(NC(=O)C3CC3)ncn2)c1 [Example 221] | ≥ 7.00
3 | 5.00 to 6.00 | 5.00 to 6.00 | ≥ 7.00 | COC(C)(C)CCNC(=O)Nc1cnc(C)c(-c2nccc(-c3ccnc(NC(=O)C4CC4)c3)n2)c1 [Example 82] | 5.00 to 6.00
4 | 5.00 to 6.00 | 5.00 to 6.00 | ≥ 7.00 | Cc1cc(F)c(NC(=O)NCCC(C)(C)C#N)cc1-c1cc(N2CCOCC2)nc(N2CCOCC2)c1 [Example 22] | 5.00 to 6.00
5 | 6.30 to 7.00 | 6.30 to 7.00 | ≥ 7.00 | Cc1cc(F)c(NC(=O)N2CC[C@H](C(F)(F)F)C2)cc1-c1cncc(-c2cc(NC(=O)C3CC3)ncn2)c1 [Example 216] | ≥ 7.00
6 | 5.00 to 6.00 | 6.00 to 6.30 | ≥ 7.00 | Cc1ccc(NC(=O)N2CC[C@@H](C(F)(F)F)C2)cc1-c1cncc(-c2ccnc(NC(=O)C3CC3)c2)c1 [Example 196] | 6.00 to 6.30
7 | 6.00 to 6.30 | 6.00 to 6.30 | 6.30 to 7.00 | COC(=O)Nc1cc(-c2cncc(-c3cc(NC(=O)N4CCCCC4)ccc3C)c2)ccn1 [Example 208] | 6.00 to 6.30
8 | 5.00 to 6.00 | 6.30 to 7.00 | 6.30 to 7.00 | CNC(=O)c1cc(-c2cncc(-c3cc(NC(=O)N4CC[C@H](C(F)(F)F)C4)c(F)cc3C)c2)ccn1 [Example 214] | 5.00 to 6.00
9 | 5.00 to 6.00 | 5.00 to 6.00 | ≥ 7.00 | COC1(CCNC(=O)Nc2cnc(C)c(-c3cccc(-c4cc(NC(=O)C5CC5)ncn4)c3)c2)CC1 [Example 84] | 6.00 to 6.30
10 | 5.00 to 6.00 | 5.00 to 6.00 | ≥ 7.00 | Cc1cc(F)c(NC(=O)NCCC(C)(C)C#N)cc1-c1cccc(-c2ccnc(NC(=O)C3CC3)c2)c1 [Example 66] | 6.30 to 7.00
11 | 6.00 to 6.30 | 6.30 to 7.00 | ≥ 7.00 | Cc1ccc(NC(=O)N2CC[C@@H](C)C2)cc1-c1cncc(-c2cc(NC(=O)C3CC3)ncn2)c1 [Example 219] | 6.00 to 6.30
12 | ≥ 7.00 | 6.30 to 7.00 | ≥ 7.00 | COC(=O)Nc1cc(-c2cc(-c3cc(NC(=O)NCCC4(C)CC4)c(F)cc3C)cc(OCCO)n2)ccn1 [Example 77] | ≥ 7.00
13 | ≥ 7.00 | ≥ 7.00 | ≥ 7.00 | Cc1cc(F)c(NC(=O)NCCC2(C)CC2)cc1-c1cc(OCCO)nc(-c2ccnc(NC(=O)C3CC3)c2)c1 [Example 76] | ≥ 7.00
14 | 5.00 to 6.00 | 6.00 to 6.30 | ≥ 7.00 | Cc1cc(F)c(NC(=O)NCCC2(C)CC2)cc1-c1ccnc(-c2ccnc3c2CC(=O)N3)c1 [Example 79] | 6.30 to 7.00
15 | 5.00 to 6.00 | 5.00 to 6.00 | 6.30 to 7.00 | COC(=O)Nc1cc(-c2cncc(-c3cc(NC(=O)N4CCCCCC4)ccc3C)c2)ccn1 [Example 202] | 5.00 to 6.00
16 | 6.00 to 6.30 | 6.30 to 7.00 | ≥ 7.00 | Cc1cc(F)c(NC(=O)NCCC2(C(F)(F)F)CC2)cc1-c1cc(N2CCOCC2)nc(N2CCOCC2)c1 [Example 23] | 6.30 to 7.00
17 | 6.30 to 7.00 | 6.30 to 7.00 | ≥ 7.00 | Cc1ccc(NC(=O)N2CC[C@H](C(F)(F)F)C2)cc1-c1cncc(-c2cc(NC(=O)C3CC3)ncn2)c1 [Example 195] | ≥ 7.00
18 | 5.00 to 6.00 | 6.30 to 7.00 | ≥ 7.00 | Cc1ncc(NC(=O)NCCC2(C)CC2)cc1-c1nccc(-c2ccnc(NC(=O)C3CC3)c2)n1 [Example 81] | 6.00 to 6.30

Row | pIC50 (A375 cells) | pIC50 (H2405 cells) | pIC50 (C-Raf kinase) | SMILES | pIC50 (WM3928 cells)
19 | ≥ 7.00 | ≥ 7.00 | ≥ 7.00 | CC(=O)Nc1cc(-c2cc(-c3cc(NC(=O)NCCC4(C)CC4)c(F)cc3C)cc(OCCO)n2)ccn1 [Example 33] | ≥ 7.00
20 | 5.00 to 6.00 | 6.30 to 7.00 | ≥ 7.00 | COC(C)(C)CCNC(=O)Nc1cc(-c2nccc(-c3ccnc(NC(=O)C4CC4)c3)n2)c(C)cc1F [Example 83] | 6.30 to 7.00
21 | 6.30 to 7.00 | 6.30 to 7.00 | ≥ 7.00 | COC(=O)Nc1cc(-c2cc(-c3cc(NC(=O)N4CCC(C(F)(F)F)C4)ccc3C)cc(OCCO)n2)ccn1 (centres unmarked) [Example 222] | ≥ 7.00
22 | 6.00 to 6.30 | 6.30 to 7.00 | ≥ 7.00 | Cc1ccc(NC(=O)N2CC[C@@H](C(F)(F)F)C2)cc1-c1cccc(-c2cc(NC(=O)C3CC3)ncn2)c1 [Example 201] | 6.30 to 7.00
23 | ≥ 7.00 | 6.30 to 7.00 | ≥ 7.00 | Cc1ccc(NC(=O)N2CCC(CC(F)(F)F)C2)cc1-c1cncc(-c2cc(NC(=O)C3CC3)ncn2)c1 (centres unmarked) [Example 194] | ≥ 7.00
24 | 6.00 to 6.30 | 6.30 to 7.00 | ≥ 7.00 | COC(=O)Nc1cc(-c2cncc(-c3cc(NC(=O)N4CC[C@H](C(F)(F)F)C4)ccc3C)c2)ccn1 [Example 211] | 6.30 to 7.00
25 | 5.00 to 6.00 | 6.30 to 7.00 | ≥ 7.00 | COC(=O)Nc1cc(-c2cnnc(-c3cc(NC(=O)N4CCC(CC(F)(F)F)C4)ccc3C)c2)ccn1 (centres unmarked) [Example 186] | 6.00 to 6.30
26 | 5.00 to 6.00 | 6.30 to 7.00 | ≥ 7.00 | Cc1cc(F)c(NC(=O)NCCC(C)(C)C#N)cc1-c1cccc(-c2cc(NC(=O)C3CC3)ncn2)c1 [Example 67] | 5.00 to 6.00
27 | 5.00 to 6.00 | 5.00 to 6.00 | 6.00 to 6.30 | COC(=O)Nc1cc(-c2cncc(-c3cc(NC(=O)N4CCCC4)ccc3C)c2)ccn1 [Example 213] | 5.00 to 6.00
28 | 5.00 to 6.00 | 6.30 to 7.00 | ≥ 7.00 | Cc1cc(F)c(NC(=O)NCCC2(C)CC2)cc1-c1cc(OCC(C)(C)O)nc(-c2ccncc2)c1 [Example 34] | 6.30 to 7.00
29 | 6.30 to 7.00 | 6.30 to 7.00 | ≥ 7.00 | Cc1ccc(NC(=O)N2CC[C@H](C(F)(F)F)C2)cc1-c1cncc(-c2ccnc(NC(=O)C3CC3)c2)c1 [Example 197] | 6.30 to 7.00
30 | 5.00 to 6.00 | 5.00 to 6.00 | 6.30 to 7.00 | COC(=O)Nc1cc(-c2cc(-c3cc(NC(=O)N4CC[C@H](C(F)(F)F)C4)ccc3C)nc(C)n2)ccn1 [Example 223] | 5.00 to 6.00
31 | 6.30 to 7.00 | 6.30 to 7.00 | ≥ 7.00 | Cc1ccc(NC(=O)N2CCC(C(F)(F)F)C2)cc1-c1cccc(-c2cc(NC(=O)C3CC3)ncn2)c1 (centres unmarked) [Example 73] | ≥ 7.00
32 | ≥ 7.00 | 6.30 to 7.00 | ≥ 7.00 | Cc1ccc(NC(=O)N2CC[C@@H](C(C)C)C2)cc1-c1cncc(-c2cc(NC(=O)C3CC3)ncn2)c1 [Example 217] | ≥ 7.00
33 | ≥ 7.00 | ≥ 7.00 | ≥ 7.00 | Cc1cc(F)c(NC(=O)NC2CC(C)(C)C2)cc1-c1cc(OCCO)nc(-c2ccnc(NC(=O)C3CC3)c2)c1 [Example 80] | ≥ 7.00
34 | 6.30 to 7.00 | 6.30 to 7.00 | ≥ 7.00 | Cc1ccc(NC(=O)N2CC[C@H](C(F)(F)F)C2)cc1-c1cccc(-c2cc(NC(=O)C3CC3)ncn2)c1 [Example 200] | ≥ 7.00
35 | 5.00 to 6.00 | 5.00 to 6.00 | ≥ 7.00 | Cc1ncc(NC(=O)NCCC(C)(C)F)cc1-c1ccnc(-c2ccnc(NC(=O)C3CC3)c2)c1 [Example 75] | 6.00 to 6.30

Source: patent US20230357179A1, “RAF KINASE INHIBITORS AND METHODS OF USE THEREOF” (Deciphera Pharmaceuticals, LLC, priority 2021, published 2023)
